pIC50: −log10 of the molar value. The source made the active and inactive calls. No cut-off for these calls is given here.
Tests used:
Cathepsin S = Cathepsin S (Homo sapiens, UniProt P25774); experiment: Inhibition of Cathepsin S (unknown origin) assessed as inhibition of AFC release using sequence VVR labelled with AFC as substrate by fluorescence based analysis
[1] = biological target: T1, Cathepsin K (Homo sapiens) (UniProt P43235); experiment: Inhibition of Cathepsin K (unknown origin) assessed as inhibition of AFC release at 1 uM using sequence LR labelled with AFC as substrate by fluorescence based analysis
T1 sequence (whole entry): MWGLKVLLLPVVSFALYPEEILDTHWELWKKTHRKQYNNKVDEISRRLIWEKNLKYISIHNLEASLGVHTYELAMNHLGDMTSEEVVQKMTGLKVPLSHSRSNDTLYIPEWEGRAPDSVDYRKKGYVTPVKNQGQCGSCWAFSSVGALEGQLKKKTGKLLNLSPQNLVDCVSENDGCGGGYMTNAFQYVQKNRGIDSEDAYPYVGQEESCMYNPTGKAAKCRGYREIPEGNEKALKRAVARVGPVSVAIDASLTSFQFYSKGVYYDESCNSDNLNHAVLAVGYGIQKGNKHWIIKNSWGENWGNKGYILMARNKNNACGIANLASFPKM

[2] = biological target: T1, Cathepsin K (Homo sapiens); experiment: Inhibition of Cathepsin K (unknown origin) assessed as inhibition of AFC release at 10 uM using sequence LR labelled with AFC as substrate by fluorescence based analysis
Cathepsin K = biological target: T2, Cathepsin K (Homo sapiens, UniProt P43235); experiment: Inhibition of Cathepsin K (unknown origin) assessed as inhibition of AFC release using sequence LR labelled with AFC as substrate by fluorescence based analysis
T2 sequence (P43235 whole entry): T1 sequence (whole entry)

Cathepsin B = Cathepsin B (Homo sapiens, UniProt P07858); experiment: Inhibition of Cathepsin B (unknown origin) assessed as inhibition of AFC release using sequence RR labelled with AFC as substrate by fluorescence based analysis
[3] = biological target: Cathepsin (S and K) (Homo sapiens) (UniProt P25774+P43235); experiment: Selectivity index, ratio of IC50 for Cathepsin S (unknown origin) to IC50 for Cathepsin K (unknown origin) by fluorescence based analysis; type: protein assay
[4] = biological target: T1, Cathepsin K (Homo sapiens); experiment: Reversible inhibition of Cathepsin K (unknown origin) assessed as inhibition of AFC release using sequence LR labelled with AFC as substrate preincubated with enzyme for 10 to 60 mins followed by substrate addition by fluorescence based analysis
[5] = biological target: Cathepsin (B and K) (Homo sapiens) (UniProt P43235+P07858); experiment: Selectivity index, ratio of IC50 for Cathepsin B (unknown origin) to IC50 for Cathepsin K (unknown origin) by fluorescence based analysis; type: protein assay

Cathepsin S, sequence (P25774 whole entry): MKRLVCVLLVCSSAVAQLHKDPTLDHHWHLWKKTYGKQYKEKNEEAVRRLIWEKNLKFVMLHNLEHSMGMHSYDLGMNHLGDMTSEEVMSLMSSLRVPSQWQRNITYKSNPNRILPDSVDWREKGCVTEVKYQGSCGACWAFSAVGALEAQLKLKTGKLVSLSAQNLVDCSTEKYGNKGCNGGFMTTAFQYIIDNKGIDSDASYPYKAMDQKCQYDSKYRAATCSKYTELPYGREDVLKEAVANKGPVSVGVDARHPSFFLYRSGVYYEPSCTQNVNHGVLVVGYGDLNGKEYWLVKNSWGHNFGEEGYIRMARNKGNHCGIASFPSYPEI
Cathepsin (S and K) (Homo sapiens), sequence (P25774 whole entry, looked up, one chain of several): as the sequence (P25774 whole entry) above

| SMILES | pIC50 (Cathepsin S) | inhibition [1] [%] | inhibition [2] [%] | pIC50 (Cathepsin K) | pIC50 (Cathepsin B) | Ratio IC50 [3] | inhibition [4] | Ratio IC50 [5] |
| --- | --- | --- | --- | --- | --- | --- | --- | --- |
| CC(C)(C)CN(Cc1ccc(-c2ccccc2)cc1)c1nccc(C#N)n1 | < 3.30 | 77.5 | 83.3 | 6.63 | < 3.30 |  |  |  |
| CC(C)(C)CN(Cc1ccc2ccccc2c1)c1nccc(C#N)n1 | < 3.30 | 86.5 | 89.7 | 6.45 | < 3.30 |  |  |  |
| CC(C)(C)CN(Cc1ccc2cccnc2c1)c1nccc(C#N)n1 |  | 48 | 93.4 |  |  |  |  |  |
| CN1CCN(c2ccc(CN(CC(C)(C)C)c3nccc(C#N)n3)cc2)CC1 | < 4.30 | 96.7 | 99.1 | 7.21 | < 4.00 | > 810 | Active | > 1620 |
| CC(C)(F)C[C@H](N[C@@H](c1ccc(-c2ccc(S(C)(=O)=O)cc2)cc1)C(F)(F)F)C(=O)NC1(C#N)CC1 [ODANACATIB] | > 6.30 | 96.5 | 100 | 8.77 | > 5.70 | < 300 |  | < 1180 |
| N#Cc1ccnc(N(Cc2ccc(Br)cc2)C2CCCCC2)n1 |  | 16.8 | 42.8 |  |  |  |  |  |
| CC(C)(C)CN(Cc1cccc(-c2ccccc2)c1)c1nccc(C#N)n1 |  | 33.6 | 45.5 |  |  |  |  |  |
| CC(C)(C)CN(Cc1cc(Br)cs1)c1nccc(C#N)n1 |  | 43.9 | 75.8 |  |  |  |  |  |
| CC(C)(C)CN(Cc1ccc(F)cc1)c1nccc(C#N)n1 |  | 56.2 | 90.6 |  |  |  |  |  |
| CC(C)(C)CN(Cc1ccc2ccccc2n1)c1nccc(C#N)n1 |  | 46.9 | 87.4 |  |  |  |  |  |
| CC(C)(C)CN(Cc1ccccc1)c1nccc(C#N)n1 |  | -1.05 | 82.7 |  |  |  |  |  |
| Cc1ncc(CN(CC(C)(C)C)c2nccc(C#N)n2)s1 |  | 52.6 | 93.7 |  |  |  |  |  |
| CC(C)(C)CN(Cc1ccc(Br)cc1)c1nccc(C#N)n1 |  | 79.8 | 91.3 | 6.01 |  |  |  |  |
| N#Cc1ccnc(N(Cc2ccc(Br)cc2)CC2CCCCC2)n1 |  | 47.4 | 73.2 |  |  |  |  |  |
| CC(C)(C)CN(Cc1ccc(Cl)cc1)c1nccc(C#N)n1 |  | 61.3 | 88.3 |  |  |  |  |  |
| CC(C)(C)CN(Cc1ccc(Br)cn1)c1nccc(C#N)n1 |  |  | 32.2 |  |  |  |  |  |
